# Experimental data taken from patent US8980888B2, “Pyrazole derivative” (Mochida Pharmaceutical Co., Ltd., priority 2013, dated 2015).
# Target: T1, Human PDE10 (Homo sapiens, UniProt Q9Y233)
# T1 construct: purchased BPA Bioscience (so in the source)
# Test: Human PDE10 inhibitory effect (IMAP TR-FRET enzyme inhibition assay)
# Assay type: biochemical
# Conditions: PDE10 inhibitory activity, cAMP substrate
# Protocol: (Evaluation of Enzyme Inhibitory Activity: Human PDE10 Inhibitory Effect)
# IMAP TR-FRET Phosphodiersterase Evaluation Assay Kit (Molecular Device) was used for the measurement. Ten μL of a diluted test compound having each concentration and 5 μL of the enzyme PDE10 (BPA Bioscience) that had been diluted to 2 ng/mL with 1×IMAP Reaction Buffer (prepared with 5× included with the kit, 10 mM Tris-HCl, pH=7.2, 10 mM MgCl2, 0.05% NaN3, and 0.1% BSA) containing 0.1% BSA were added to a 384-well plate (Corning). The obtained mixture was then pre-incubated at room temperature for 5 minutes. Thereafter, 5 μL of cAMP substrate solution which was included with the kit and diluted to 400 nM with 1×IMAP Reaction Buffer containing 0.1% BSA, was added to the reaction solution, and the obtained mixture was reacted at room temperature for 60 minutes. Thereafter, 60 μL of an IMAP TR-FRET Binding solution included with the kit was further added to the reaction solution, and the obtained mixture was then left for 3 hours or more. Subsequently, using ARVO SX (PerkinElmer), the fluorescent intensity of Terbium (Emission=490 nm) and TR-FRET (Emission=520 nm) in the reaction solution were measured at an excitation wavelength of 340 nm, so as to calculate the amount of the generated 5′-AMP. The count of a well to which a solvent had been added instead of the test compound was set at 0%, and the count of a well to which the enzyme PDE10 had not been added was set at 100%. Thus, the inhibitory activity of each test compound was calculated.
# The PDE10 inhibitory activity of the test compound was indicated with an IC50 value. […] The test compounds are shown in Table 3 (Table 3-1 and Table 3-2).
# T1 sequence (Q9Y233 whole entry): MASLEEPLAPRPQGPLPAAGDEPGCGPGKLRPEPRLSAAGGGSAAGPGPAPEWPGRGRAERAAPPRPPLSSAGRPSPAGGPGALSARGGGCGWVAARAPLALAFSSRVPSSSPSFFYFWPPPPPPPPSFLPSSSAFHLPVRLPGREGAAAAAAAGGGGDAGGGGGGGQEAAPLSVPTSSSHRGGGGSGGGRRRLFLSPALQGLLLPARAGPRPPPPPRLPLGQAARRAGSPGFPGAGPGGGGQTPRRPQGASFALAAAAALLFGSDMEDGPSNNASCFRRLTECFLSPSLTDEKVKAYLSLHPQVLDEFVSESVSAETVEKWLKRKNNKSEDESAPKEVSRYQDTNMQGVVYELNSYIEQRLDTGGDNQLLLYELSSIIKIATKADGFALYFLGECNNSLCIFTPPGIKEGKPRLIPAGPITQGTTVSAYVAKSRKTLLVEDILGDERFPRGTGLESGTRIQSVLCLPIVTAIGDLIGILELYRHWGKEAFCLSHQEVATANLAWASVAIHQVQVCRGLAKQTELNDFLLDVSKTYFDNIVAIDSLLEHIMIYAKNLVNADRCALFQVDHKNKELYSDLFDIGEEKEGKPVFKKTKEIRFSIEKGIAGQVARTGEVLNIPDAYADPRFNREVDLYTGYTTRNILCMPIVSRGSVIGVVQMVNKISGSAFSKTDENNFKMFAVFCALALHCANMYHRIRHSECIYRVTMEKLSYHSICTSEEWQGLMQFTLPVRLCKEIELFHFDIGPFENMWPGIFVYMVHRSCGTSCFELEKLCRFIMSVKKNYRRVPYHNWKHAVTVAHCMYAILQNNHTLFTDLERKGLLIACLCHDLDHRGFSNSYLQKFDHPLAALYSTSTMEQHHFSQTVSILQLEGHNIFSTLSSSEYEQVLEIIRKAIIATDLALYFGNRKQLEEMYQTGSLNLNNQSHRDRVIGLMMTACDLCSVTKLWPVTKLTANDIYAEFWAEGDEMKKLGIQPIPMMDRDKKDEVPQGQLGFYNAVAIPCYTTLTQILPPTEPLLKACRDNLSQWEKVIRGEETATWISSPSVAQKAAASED
row,IC50,Structure (SMILES)
1,5 to 100 nM,"Cc1csc(-c2cnn(C)c2C(=O)NC2CCn3nc(-c4ccccc4)nc3C2)n1 (centres unmarked) [Example 5.18, 1-methyl-4-(4-methylthiazol-2-yl)-N-(2-phenyl-5,6,7,8-tetrahydro-[1,2,4]triazolo[1,5-a]pyridin-7-yl)-1H-pyrazole-5-carboxamide]"
2,5 to 100 nM,"Cc1cccc(-c2cnn(C)c2C(=O)NC2CCn3nc(-c4ccccc4)nc3C2)n1 (centres unmarked) [Example 5.19, 1-methyl-4-(6-methylpyridin-2-yl)-N-(2-phenyl-5,6,7,8-tetrahydro-[1,2,4]triazolo[1,5-a]pyridin-7-yl)-1H-pyrazole-5-carboxamide]"
3,5 to 100 nM,"Cc1ccnc(-c2cnn(C)c2C(=O)NC2CCn3nc(-c4ccccc4)nc3C2)c1 (centres unmarked) [Example 5.20, 1-methyl-4-(4-methylpyridin-2-yl)-N-(2-phenyl-5,6,7,8-tetrahydro-[1,2,4]triazolo[1,5-a]pyridin-7-yl)-1H-pyrazole-5-carboxamide]"
4,5 to 100 nM,"Cn1ncc(-c2cccc(C(F)(F)F)n2)c1C(=O)NC1CCn2nc(-c3ccccc3)nc2C1 (centres unmarked) [Example 5.21, 1-methyl-N-(2-phenyl-5,6,7,8-tetrahydro-[1,2,4]triazolo[1,5-a]pyridin-7-yl)-4-(6-(trifluoromethyl)pyridin-2-yl)-1H-pyrazole-5-carboxamide]"
5,5 to 100 nM,"Cc1cccnc1-c1cnn(C)c1C(=O)NC1CCn2nc(-c3ccccc3)nc2C1 (centres unmarked) [Example 5.22, 1-methyl-4-(3-methylpyridin-2-yl)-N-(2-phenyl-5,6,7,8-tetrahydro-[1,2,4]triazolo[1,5-a]pyridin-7-yl)-1H-pyrazole-5-carboxamide]"
6,5 to 100 nM,"Cn1ncc(-c2cc(F)ccn2)c1C(=O)NC1CCn2nc(-c3ccccc3)nc2C1 (centres unmarked) [Example 5.23, 4-(4-fluoropyridin-2-yl)-1-methyl-N-(2-phenyl-5,6,7,8-tetrahydro-[1,2,4]triazolo[1,5-a]pyridin-7-yl)-1H-pyrazole-5-carboxamide]"
7,5 to 100 nM,"Cn1ncc(-c2ccc(F)cn2)c1C(=O)NC1CCn2nc(-c3ccccc3)nc2C1 (centres unmarked) [Example 5.24, 4-(5-fluoropyridin-2-yl)-1-methyl-N-(2-phenyl-5,6,7,8-tetrahydro-[1,2,4]triazolo[1,5-a]pyridin-7-yl)-1H-pyrazole-5-carboxamide]"
8,5 to 100 nM,"COc1ccnc(-c2cnn(C)c2C(=O)NC2CCn3nc(-c4ccccc4)nc3C2)c1 (centres unmarked) [Example 5.25, 4-(4-methoxypyridin-2-yl)-1-methyl-N-(2-phenyl-5,6,7,8-tetrahydro-[1,2,4]triazolo[1,5-a]pyridin-7-yl)-1H-pyrazole-5-carboxamide]"
9,5 to 100 nM,"Cc1ccc(-c2cnn(C)c2C(=O)NC2CCn3nc(-c4ccccc4)nc3C2)nc1 (centres unmarked) [Example 5.26, 1-methyl-4-(5-methylpyridin-2-yl)-N-(2-phenyl-5,6,7,8-tetrahydro-[1,2,4]triazolo[1,5-a]pyridin-7-yl)-1H-pyrazole-5-carboxamide]"
10,5 to 100 nM,"Cn1ncc(-c2ncccc2C#N)c1C(=O)NC1CCn2nc(-c3ccccc3)nc2C1 (centres unmarked) [Example 5.27, 4-(3-cyanopyridin-2-yl)-1-methyl-N-(2-phenyl-5,6,7,8-tetrahydro-[1,2,4]triazolo[1,5-a]pyridin-7-yl)-1H-pyrazole-5-carboxamide]"
11,5 to 100 nM,"Cc1nc(-c2cnn(C)c2C(=O)NC2CCn3nc(-c4ccc(F)cc4)nc3C2)c(C)s1 (centres unmarked) [Example 5.28, 4-(2,5-dimethylthiazol-4-yl)-N-(2-(4-fluorophenyl)-5,6,7,8-tetrahydro-[1,2,4]triazolo[1,5-a]pyridin-7-yl)-1-methyl-1H-pyrazole-5-carboxamide]"
12,5 to 100 nM,"CC(=O)c1sc(C)nc1-c1cnn(C)c1C(=O)NC1CCn2nc(-c3ccccc3)nc2C1 (centres unmarked) [Example 5.30, 4-(5-acetyl-2-methylthiazol-4-yl)-1-methyl-N-(2-phenyl-5,6,7,8-tetrahydro-[1,2,4]triazolo[1,5-a]pyridin-7-yl)-1H-pyrazole-5-carboxamide]"
13,5 to 100 nM,"Cc1nc(-c2cnn(C)c2C(=O)NC2CCn3nc(-c4ccccc4)nc3C2)c(C(C)O)s1 (centres unmarked) [Example 5.31, 4-(5-(1-hydroxyethyl)-2-methylthiazol-4-yl)-1-methyl-N-(2-phenyl-5,6,7,8-tetrahydro-[1,2,4]triazolo[1,5-a]pyridin-7-yl)-1H-pyrazole-5-carboxamide]"
14,5 to 100 nM,"Cn1ncc(-c2nc(C(F)F)cs2)c1C(=O)NC1CCn2nc(-c3ccccc3F)nc2C1 (centres unmarked) [Example 5.32, 4-(4-(difluoromethyl)thiazol-2-yl)-N-(2-(2-fluorophenyl)-5,6,7,8-tetrahydro-[1,2,4]triazolo[1,5-a]pyridin-7-yl)-1-methyl-1H-pyrazole-5-carboxamide]"
15,5 to 100 nM,"Cn1ncc(-c2nc(C(F)F)cs2)c1C(=O)NC1CCn2nc(-c3cccc(F)c3)nc2C1 (centres unmarked) [Example 5.33, 4-(4-(difluoromethyl)thiazol-2-yl)-N-(2-(3-fluorophenyl)-5,6,7,8-tetrahydro-[1,2,4]triazolo[1,5-a]pyridin-7-yl)-1-methyl-1H-pyrazole-5-carboxamide]"
16,5 to 100 nM,"Cn1ncc(-c2nc(C(F)F)c(C3CC3)s2)c1C(=O)NC1CCn2nc(-c3ccc(F)cc3)nc2C1 (centres unmarked) [Example 5.35, 4-(5-cyclopropyl-4-(difluoromethyl)thiazol-2-yl)-N-(2-(4-fluorophenyl)-5,6,7,8-tetrahydro-[1,2,4]triazolo[1,5-a]pyridin-7-yl)-1-methyl-1H-pyrazole-5-carboxamide]"
17,5 to 100 nM,"Cn1ncc(-c2nc(C(F)F)c(Cl)s2)c1C(=O)NC1CCn2nc(-c3cccc(F)c3)nc2C1 (centres unmarked) [Example 5.37, 4-(5-chloro-4-(difluoromethyl)thiazol-2-yl)-N-(2-(3-fluorophenyl)-5,6,7,8-tetrahydro-[1,2,4]triazolo[1,5-a]pyridin-7-yl)-1-methyl-1H-pyrazole-5-carboxamide]"
18,5 to 100 nM,"Cc1nc(-c2cnn(C)c2C(=O)NC2CCn3nc(-c4ccccc4)nc3C2)sc1C1CC1 (centres unmarked) [Example 5.38, 4-(5-cyclopropyl-4-methylthiazol-2-yl)-1-methyl-N-(2-phenyl-5,6,7,8-tetrahydro-[1,2,4]triazolo[1,5-a]pyridin-7-yl)-1H-pyrazole-5-carboxamide]"
19,5 to 100 nM,"Cc1nc(-c2cnn(C)c2C(=O)NC2CCn3nc(-c4ccccc4)nc3C2)c(C)s1 (centres unmarked) [Example 5.39, 4-(2,5-dimethylthiazol-4-yl)-1-methyl-N-(2-phenyl-5,6,7,8-tetrahydro-[1,2,4]triazolo[1,5-a]pyridin-7-yl)-1H-pyrazole-5-carboxamide]"
20,5 to 100 nM,"Cn1ncc(-c2cccc(C#N)n2)c1C(=O)NC1CCn2nc(-c3ccccc3)nc2C1 (centres unmarked) [Example 5.40, 4-(6-cyanopyridin-2-yl)-1-methyl-N-(2-phenyl-5,6,7,8-tetrahydro-[1,2,4]triazolo[1,5-a]pyridin-7-yl)-1H-pyrazole-5-carboxamide]"
21,5 to 100 nM,"Cn1ncc(-c2nc(C#N)cs2)c1C(=O)NC1CCn2nc(-c3ccc(F)cc3)nc2C1 (centres unmarked) [Example 5.41, 4-(4-cyanothiazol-2-yl)-N-(2-(4-fluorophenyl)-5,6,7,8-tetrahydro-[1,2,4]triazolo[1,5-a]pyridin-7-yl)-1-methyl-1H-pyrazole-5-carboxamide]"
22,5 to 100 nM,"Cn1ncc(-c2nc(C(F)F)c(C3CC3)s2)c1C(=O)NC1CCn2nc(-c3cccc(F)c3)nc2C1 (centres unmarked) [Example 5.42, 4-(5-cyclopropyl-4-(difluoromethyl)thiazol-2-yl)-N-(2-(3-fluorophenyl)-5,6,7,8-tetrahydro-[1,2,4]triazolo[1,5-a]pyridin-7-yl)-1-methyl-1H-pyrazole-5-carboxamide]"
23,5 to 100 nM,"Cc1nc(-c2cnn(C)c2C(=O)NC2CCn3nc(-c4ccc(F)cc4)nc3C2)sc1C1CC1 (centres unmarked) [Example 5.43, 4-(5-cyclopropyl-4-methylthiazol-2-yl)-N-(2-(4-fluorophenyl)-5,6,7,8-tetrahydro-[1,2,4]triazolo[1,5-a]pyridin-7-yl)-1-methyl-1H-pyrazole-5-carboxamide]"
24,5 to 100 nM,"CC(=O)c1sc(C)nc1-c1cnn(C)c1C(=O)NC1CCn2nc(-c3cccc(F)c3)nc2C1 (centres unmarked) [Example 5.44, 4-(5-acetyl-2-methylthiazol-4-yl)-N-(2-(3-fluorophenyl)-5,6,7,8-tetrahydro-[1,2,4]triazolo[1,5-a]pyridin-7-yl)-1-methyl-1H-pyrazole-5-carboxamide]"
25,< 5 nM,"Cn1ncc(-c2nc(C(F)(F)F)cs2)c1C(=O)NC1CCn2nc(N3CCCC3)nc2C1 (centres unmarked) [Example 5.46, 1-methyl-N-(2-(pyrrolidin-1-yl)-5,6,7,8-tetrahydro-[1,2,4]triazolo[1,5-a]pyridin-7-yl)-4-(4-(trifluoromethyl)thiazol-2-yl)-1H-pyrazole-5-carboxamide]"
26,5 to 100 nM,"Cc1cccc(-c2cnn(C)c2C(=O)NC2CCn3nc(N4CCCC4)nc3C2)n1 (centres unmarked) [Example 5.47, 1-methyl-4-(6-methylpyridin-2-yl)-N-(2-(pyrrolidin-1-yl)-5,6,7,8-tetrahydro-[1,2,4]triazolo[1,5-a]pyridin-7-yl)-1H-pyrazole-5-carboxamide]"
